Like-named read-outs stand apart in the source and are kept apart here.
Legend:
mTORC2 = molecular target: T1, mTORC2 (Homo sapiens, UniProt P42345+P62942); test: Inhibition assay for mTORC2: phosphorylation of pAkt at Ser473, AlphaLISA SureFire in PC3 cells; type: cell-based; conditions: 24 hours treatment, analogs substituted at C40 and C16 (C16 diastereomer mixtures not isolated)
T1 construct: endogenous in cells; host or cells: PC3 cells (human prostate adenocarcinoma)
Description: The IC50s of the inhibition of mTORC1 and mTORC2 were determined in vitro by determining the phosphorylation of pS6K at position Thr389 (mTORC1 inhibition) and pAkt at Ser473 (mTORC2 inhibition). In vitro studies were performed with AiphaLISA® technology using PC3 cells (Prostate Adenocarcinoma; Human (Homo sapiens)). The cells were seeded in 96 well plates and were treated for 24 hours with the different compounds. […] All analysis were performed using GraphPad Prism 7.0 (GraphPad Software, San Diego, USA). […]

mTORC1 = molecular target: T2, mTORC1 (Homo sapiens, UniProt P42345+P62942); test: Inhibition assay for mTORC1: phosphorylation of pS6K at Thr389, AlphaLISA SureFire in PC3 cells; type: cell-based
T2 construct: endogenous in cells; host or cells: PC3 cells (human prostate adenocarcinoma)
Description: The IC50s of the inhibition of mTORC1 and mTORC2 were determined in vitro by determining the phosphorylation of pS6K at position Thr389 (mTORC1 inhibition) and pAkt at Ser473 (mTORC2 inhibition). In vitro studies were performed with AiphaLISA® technology using PC3 cells (Prostate Adenocarcinoma; Human (Homo sapiens)). The cells were seeded in 96 well plates and were treated for 24 hours with the different compounds. […] All analysis were performed using GraphPad Prism 7.0 (GraphPad Software, San Diego, USA).
Tables 5-7 include PIC50 values for mTORC1 of selected compounds; with compounds having an PIC50 for mTORC1 of >9.5 as A, 8.5 to 9.5 as B, and less than 8.5 as C.

[1] = PC3 cells, read-out: pIC50 mTORC2 (converted)
[2] = PC3 cells, 24 hours treatment, pS6K Thr389, analogs substituted at C40 and C16 (C16 diastereomer mixtures not isolated), read-out: pIC50 mTORC1 (converted)

Structure (SMILES)	IC50 (mTORC2; [1]) [µM]	IC50 (mTORC1) [µM]	IC50 (mTORC2; pIC50 mTORC2, PC3 cells) [µM]	IC50 (mTORC1; [2]) [µM]
CO[C@@H]1C[C@H](C[C@@H](C)[C@@H]2CC(=O)[C@H](C)/C=C(\C)[C@@H](O)[C@@H](OC)C(=O)[C@H](C)C[C@H](C)/C=C/C=C/C=C(\C)C(OCCO)C[C@@H]3CC[C@@H](C)[C@@](O)(O3)C(=O)C(=O)N3CCCC[C@H]3C(=O)O2)CC[C@H]1OCCCN1CCO[C@H](C)C1 (mixture of isomers) [Compound 13]	> 10	–	–	–
COCCOCCOC1C[C@@H]2CC[C@@H](C)[C@@](O)(O2)C(=O)C(=O)N2CCCC[C@H]2C(=O)O[C@H]([C@H](C)C[C@@H]2CC[C@@H](OCCCO)[C@H](OC)C2)CC(=O)[C@H](C)/C=C(\C)[C@@H](O)[C@@H](OC)C(=O)[C@H](C)C[C@H](C)/C=C/C=C/C=C/1C (mixture of isomers) [Compound 17]	–	< 0.000316	> 10	–
CO[C@@H]1C[C@H](C[C@@H](C)[C@@H]2CC(=O)[C@H](C)/C=C(\C)[C@@H](O)[C@@H](OC)C(=O)[C@H](C)C[C@H](C)/C=C/C=C/C=C(\C)C(OCCCCO)C[C@@H]3CC[C@@H](C)[C@@](O)(O3)C(=O)C(=O)N3CCCC[C@H]3C(=O)O2)CC[C@H]1OCCCO (mixture of isomers) [Compound 68]	1 to 10	–	–	< 0.000316
COCCCO[C@@H]1CC[C@@H](C[C@@H](C)[C@@H]2CC(=O)[C@H](C)/C=C(\C)[C@@H](O)[C@@H](OC)C(=O)[C@H](C)C[C@H](C)/C=C/C=C/C=C(\C)C(OCCO)C[C@@H]3CC[C@@H](C)[C@@](O)(O3)C(=O)C(=O)N3CCCCC3C(=O)O2)C[C@H]1OC (stereo partly shown) [Compound 3]	> 10	–	–	< 0.000316
CO[C@@H]1C[C@H](C[C@@H](C)[C@@H]2CC(=O)[C@H](C)/C=C(\C)[C@@H](O)[C@@H](OC)C(=O)[C@H](C)C[C@H](C)/C=C/C=C/C=C(\C)C(OCCO)C[C@@H]3CC[C@@H](C)[C@@](O)(O3)C(=O)C(=O)N3CCCCC3C(=O)O2)CC[C@H]1OCCN1CCOCC1 (stereo partly shown) [Compound 8]	> 10	–	–	< 0.000316
CO[C@@H]1C[C@H](C[C@@H](C)[C@@H]2CC(=O)[C@H](C)/C=C(\C)[C@@H](O)[C@@H](OC)C(=O)[C@H](C)C[C@H](C)/C=C/C=C/C=C(\C)C(OCCO)C[C@@H]3CC[C@@H](C)[C@@](O)(O3)C(=O)C(=O)N3CCCCC3C(=O)O2)CC[C@H]1OCCO (stereo partly shown) [Compound 9]	> 10	–	–	< 0.000316
CO[C@@H]1C[C@H](C[C@@H](C)[C@@H]2CC(=O)[C@H](C)/C=C(\C)[C@@H](O)[C@@H](OC)C(=O)[C@H](C)C[C@H](C)/C=C/C=C/C=C(\C)C(OCCO)C[C@@H]3CC[C@@H](C)[C@@](O)(O3)C(=O)C(=O)N3CCCCC3C(=O)O2)CC[C@H]1OCCCO (stereo partly shown) [Compound 10]	> 10	–	–	< 0.000316
COCCOC1C[C@@H]2CC[C@@H](C)[C@@](O)(O2)C(=O)C(=O)N2CCCCC2C(=O)O[C@H]([C@H](C)C[C@@H]2CC[C@@H](OC)[C@H](OC)C2)CC(=O)[C@H](C)/C=C(\C)[C@@H](O)[C@@H](OC)C(=O)[C@H](C)C[C@H](C)/C=C/C=C/C=C/1C (stereo partly shown) [Compound 11]	> 10	–	–	< 0.000316
CO[C@@H]1C[C@H](C[C@@H](C)[C@@H]2CC(=O)[C@H](C)/C=C(\C)[C@@H](O)[C@@H](OC)C(=O)[C@H](C)C[C@H](C)/C=C/C=C/C=C(\C)C(OCCO)C[C@@H]3CC[C@@H](C)[C@@](O)(O3)C(=O)C(=O)N3CCCCC3C(=O)O2)CC[C@H]1OCCCN1CCOC(C)(C)C1 (stereo partly shown) [Compound 12]	> 10	–	–	< 0.000316
COCCCO[C@@H]1CC[C@@H](C[C@@H](C)[C@@H]2CC(=O)[C@H](C)/C=C(\C)[C@@H](O)[C@@H](OC)C(=O)[C@H](C)C[C@H](C)/C=C/C=C/C=C(\C)C(OCCOC)C[C@@H]3CC[C@@H](C)[C@@](O)(O3)C(=O)C(=O)N3CCCCC3C(=O)O2)C[C@H]1OC (stereo partly shown) [Compound 14]	> 10	–	–	< 0.000316
CO[C@@H]1C[C@H](C[C@@H](C)[C@@H]2CC(=O)[C@H](C)/C=C(\C)[C@@H](O)[C@@H](OC)C(=O)[C@H](C)C[C@H](C)/C=C/C=C/C=C(\C)C(OCCCO)C[C@@H]3CC[C@@H](C)[C@@](O)(O3)C(=O)C(=O)N3CCCCC3C(=O)O2)CC[C@H]1OCCO (stereo partly shown) [Compound 15]	> 10	–	–	< 0.000316
CO[C@@H]1C[C@H](C[C@@H](C)[C@@H]2CC(=O)[C@H](C)/C=C(\C)[C@@H](O)[C@@H](OC)C(=O)[C@H](C)C[C@H](C)/C=C/C=C/C=C(\C)C(OCCO)C[C@@H]3CC[C@@H](C)[C@@](O)(O3)C(=O)C(=O)N3CCCCC3C(=O)O2)CC[C@H]1OCCCN1C[C@@H](C)O[C@@H](C)C1 (stereo partly shown) [Compound 18]	> 10	–	–	< 0.000316
CO[C@@H]1CC[C@@H](C[C@@H](C)[C@@H]2CC(=O)[C@H](C)/C=C(\C)[C@@H](O)[C@@H](OC)C(=O)[C@H](C)C[C@H](C)/C=C/C=C/C=C(\C)C(OCCCO)C[C@@H]3CC[C@@H](C)[C@@](O)(O3)C(=O)C(=O)N3CCCCC3C(=O)O2)C[C@H]1OC (stereo partly shown) [Compound 19]	> 10	–	–	< 0.000316
COCCOCCOC1C[C@@H]2CC[C@@H](C)[C@@](O)(O2)C(=O)C(=O)N2CCCCC2C(=O)O[C@H]([C@H](C)C[C@@H]2CC[C@@H](OCCO)[C@H](OC)C2)CC(=O)[C@H](C)/C=C(\C)[C@@H](O)[C@@H](OC)C(=O)[C@H](C)C[C@H](C)/C=C/C=C/C=C/1C (stereo partly shown) [Compound 20]	> 10	–	–	< 0.000316
COCCCO[C@@H]1CC[C@@H](C[C@@H](C)[C@@H]2CC(=O)[C@H](C)/C=C(\C)[C@@H](O)[C@@H](OC)C(=O)[C@H](C)C[C@H](C)/C=C/C=C/C=C(\C)C(OCCOCCOC)C[C@@H]3CC[C@@H](C)[C@@](O)(O3)C(=O)C(=O)N3CCCCC3C(=O)O2)C[C@H]1OC (stereo partly shown) [Compound 23]	> 10	–	–	< 0.000316
CO[C@@H]1CC[C@@H](C[C@@H](C)[C@@H]2CC(=O)[C@H](C)/C=C(\C)[C@@H](O)[C@@H](OC)C(=O)[C@H](C)C[C@H](C)/C=C/C=C/C=C(\C)C(OCCCCO)C[C@@H]3CC[C@@H](C)[C@@](O)(O3)C(=O)C(=O)N3CCCCC3C(=O)O2)C[C@H]1OC (stereo partly shown) [Compound 24]	> 10	–	–	< 0.000316
COCCOC1C[C@@H]2CC[C@@H](C)[C@@](O)(O2)C(=O)C(=O)N2CCCCC2C(=O)O[C@H]([C@H](C)C[C@@H]2CC[C@@H](OC(=O)N(C)CCN3CCOCC3)[C@H](OC)C2)CC(=O)[C@H](C)/C=C(\C)[C@@H](O)[C@@H](OC)C(=O)[C@H](C)C[C@H](C)/C=C/C=C/C=C/1C (stereo partly shown) [Compound 25]	1 to 10	–	–	< 0.000316
COCCOC1C[C@@H]2CC[C@@H](C)[C@@](O)(O2)C(=O)C(=O)N2CCCCC2C(=O)O[C@H]([C@H](C)C[C@@H]2CC[C@@H](OCCCO)[C@H](OC)C2)CC(=O)[C@H](C)/C=C(\C)[C@@H](O)[C@@H](OC)C(=O)[C@H](C)C[C@H](C)/C=C/C=C/C=C/1C (stereo partly shown) [Compound 28]	1 to 10	–	–	< 0.000316
COCCOC1C[C@@H]2CC[C@@H](C)[C@@](O)(O2)C(=O)C(=O)N2CCCCC2C(=O)O[C@H]([C@H](C)C[C@@H]2CC[C@@H](OCCOC)[C@H](OC)C2)CC(=O)[C@H](C)/C=C(\C)[C@@H](O)[C@@H](OC)C(=O)[C@H](C)C[C@H](C)/C=C/C=C/C=C/1C (stereo partly shown) [Compound 29]	> 10	–	–	< 0.000316
COCCOC1C[C@@H]2CC[C@@H](C)[C@@](O)(O2)C(=O)C(=O)N2CCCCC2C(=O)O[C@H]([C@H](C)C[C@@H]2CC[C@@H](OC(=O)NCCN3CCOCC3)[C@H](OC)C2)CC(=O)[C@H](C)/C=C(\C)[C@@H](O)[C@@H](OC)C(=O)[C@H](C)C[C@H](C)/C=C/C=C/C=C/1C (stereo partly shown) [Compound 30]	1 to 10	–	–	< 0.000316
COCCCOC1C[C@@H]2CC[C@@H](C)[C@@](O)(O2)C(=O)C(=O)N2CCCCC2C(=O)O[C@H]([C@H](C)C[C@@H]2CC[C@@H](OCCO)[C@H](OC)C2)CC(=O)[C@H](C)/C=C(\C)[C@@H](O)[C@@H](OC)C(=O)[C@H](C)C[C@H](C)/C=C/C=C/C=C/1C (stereo partly shown) [Compound 31]	1 to 10	–	–	< 0.000316
COCCOC1C[C@@H]2CC[C@@H](C)[C@@](O)(O2)C(=O)C(=O)N2CCCCC2C(=O)O[C@H]([C@H](C)C[C@@H]2CC[C@@H](OCCCN3CCN(C)CC3)[C@H](OC)C2)CC(=O)[C@H](C)/C=C(\C)[C@@H](O)[C@@H](OC)C(=O)[C@H](C)C[C@H](C)/C=C/C=C/C=C/1C (stereo partly shown) [Compound 32]	1 to 10	–	–	< 0.000316
COCCOC1C[C@@H]2CC[C@@H](C)[C@@](O)(O2)C(=O)C(=O)N2CCCCC2C(=O)O[C@H]([C@H](C)C[C@@H]2CC[C@@H](OCCCN3CCCCC3)[C@H](OC)C2)CC(=O)[C@H](C)/C=C(\C)[C@@H](O)[C@@H](OC)C(=O)[C@H](C)C[C@H](C)/C=C/C=C/C=C/1C (stereo partly shown) [Compound 35]	1 to 10	–	–	< 0.000316
CO[C@@H]1C[C@H](C[C@@H](C)[C@@H]2CC(=O)[C@H](C)/C=C(\C)[C@@H](O)[C@@H](OC)C(=O)[C@H](C)C[C@H](C)/C=C/C=C/C=C(\C)C(OCCO)C[C@@H]3CC[C@@H](C)[C@@](O)(O3)C(=O)C(=O)N3CCCCC3C(=O)O2)CC[C@H]1OCCCN1CCO[C@H](C)C1 (stereo partly shown) [Compound 43]	1 to 10	–	–	–
